In ChEMBL document CHEMBL1201862, “PubChem BioAssay data set” (2004):
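Briefly, cells in 96-well plates were exposed to five compound concentrations for 48 h, and endpoints were estimated by linear interpolation. GI50 = concentration required for 50% inhibition of growth.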 Activity calls are given as the source filed them. Rule as the data show it: active = GI50 up to about 1.1 µM and inactive = higher.

What was measured:
Assay in all cases: inhibition of tumour cell growth, NCI panel, 48 h
NCI-H460 = system: NCI-H460
HL-60 = system: HL-60
EKVX = system: EKVX
Malme-3M = system: Malme-3M
MOLT-4 = system: MOLT-4
SR = system: SR
UACC-257 = system: UACC-257
T47D = system: T47D
HCT-116 = system: HCT-116
UACC-62 = system: UACC-62
BT-549 = system: BT-549
SK-MEL-28 = system: SK-MEL-28
TK-10 = system: TK-10
CAKI-1 = system: CAKI-1
HOP-62 = system: HOP-62
MCF7 = system: MCF7
SNB-19 = system: SNB-19
SF-295 = system: SF-295
SK-MEL-2 = system: SK-MEL-2
U-251 = system: U-251
RXF 393 = system: RXF 393
NCI-H23 = system: NCI-H23
SK-OV-3 = system: SK-OV-3
K562 = system: K562
HCT-15 = system: HCT-15
SF-539 = system: SF-539
COLO 205 = system: COLO 205
Hs-578T = system: Hs-578T
SF-268 = system: SF-268
PC-3 = system: PC-3
OVCAR-5 = system: OVCAR-5
ACHN = system: ACHN
HT-29 = system: HT-29
IGROV-1 = system: IGROV-1
MDA-MB-435 = system: MDA-MB-435
SW-620 = system: SW-620
NCI/ADR-RES = system: NCI/ADR-RES
MDA-N = system: MDA-N
OVCAR-3 = system: OVCAR-3
SN12C = system: SN12C
NCI-H522 = system: NCI-H522
OVCAR-8 = system: OVCAR-8
LOX IMVI = system: LOX IMVI
OVCAR-4 = system: OVCAR-4
DU-145 = system: DU-145
MDA-MB-231 = system: MDA-MB-231
A549 = system: A549
M14 = system: M14
KM12 = system: KM12
SK-MEL-5 = system: SK-MEL-5
UO-31 = system: UO-31
SNB-75 = system: SNB-75
786-0 = system: 786-0
A498 = system: A498
RPMI-8226 = system: RPMI-8226
CCRF-CEM = system: CCRF-CEM
NCI-H226 = system: NCI-H226
HCC 2998 = system: HCC 2998

COc1nc(C#CC(C)(C)C)nc(OC)n1
GI50 (NCI-H460): 26.8 µM (inactive)
GI50 (HL-60): 25.8 µM (inactive)
GI50 (EKVX): 36 µM (inactive)
GI50 (Malme-3M): 19 µM (inactive)
GI50 (MOLT-4): 35.6 µM (inactive)
GI50 (SR): 5.21 µM (inactive)
GI50 (UACC-257): 48.3 µM (inactive)
GI50 (T47D): 55.5 µM (inactive)
GI50 (HCT-116): 15.7 µM (inactive)
GI50 (UACC-62): 14.8 µM (inactive)
GI50 (BT-549): 31.9 µM (inactive)
GI50 (SK-MEL-28): 37.2 µM (inactive)
GI50 (TK-10): 27.4 µM (inactive)
GI50 (CAKI-1): 22.3 µM (inactive)
GI50 (HOP-62): 34.4 µM (inactive)
GI50 (MCF7): 19 µM (inactive)
GI50 (SNB-19): > 100 µM (inactive)
GI50 (SF-295): 32.4 µM (inactive)
GI50 (SK-MEL-2): 30.3 µM (inactive)
GI50 (U-251): 39.2 µM (inactive)
GI50 (RXF 393): 31.9 µM (inactive)
GI50 (NCI-H23): 19.7 µM (inactive)
GI50 (SK-OV-3): 55 µM (inactive)
GI50 (K562): 38 µM (inactive)
GI50 (HCT-15): 20.8 µM
GI50 (SF-539): 28.8 µM (inactive)
GI50 (COLO 205): 31.8 µM (inactive)
GI50 (Hs-578T): 30.8 µM (inactive)
GI50 (SF-268): 26.2 µM (inactive)
GI50 (PC-3): 31 µM (inactive)
GI50 (OVCAR-5): 21.2 µM (inactive)
GI50 (ACHN): 39 µM (inactive)
GI50 (HT-29): 40 µM (inactive)
GI50 (IGROV-1): 39.4 µM (inactive)
GI50 (MDA-MB-435): 15 µM (inactive)
GI50 (SW-620): 25 µM (inactive)
GI50 (NCI/ADR-RES): 21 µM (inactive)
GI50 (MDA-N): 12.4 µM (inactive)
GI50 (OVCAR-3): 28.6 µM (inactive)
GI50 (SN12C): 21.9 µM (inactive)
GI50 (NCI-H522): 23.9 µM (inactive)
GI50 (OVCAR-8): 17.8 µM (inactive)
GI50 (LOX IMVI): 16.6 µM (inactive)
GI50 (OVCAR-4): 16.4 µM (inactive)
GI50 (DU-145): 23.6 µM (inactive)
GI50 (MDA-MB-231): 20.9 µM (inactive)
GI50 (A549): 25.4 µM (inactive)
GI50 (M14): 36.6 µM (inactive)
GI50 (KM12): 18.2 µM (inactive)
GI50 (SK-MEL-5): 16 µM (inactive)
GI50 (UO-31): 28.7 µM (inactive)
GI50 (SNB-75): 33.6 µM (inactive)
GI50 (786-0): 23.8 µM (inactive)
GI50 (A498): 41.9 µM (inactive)

CC(C)NC(=O)OCC[S+]([O-])c1c(Cl)c(Cl)nn1C (stereo unspecified)
GI50 (NCI-H460): > 100 µM (inactive)
GI50 (HL-60): 47.5 µM (inactive)
GI50 (EKVX): > 100 µM (inactive)
GI50 (RPMI-8226): 64.9 µM (inactive)
GI50 (MOLT-4): 34.8 µM (inactive)
GI50 (SR): 48.9 µM (inactive)
GI50 (UACC-257): > 10 µM (inactive)
GI50 (T47D): 38.1 µM (inactive)
GI50 (HCT-116): 33.3 µM (inactive)
GI50 (UACC-62): 26.6 µM (inactive)
GI50 (BT-549): > 10 µM (inactive)
GI50 (SK-MEL-28): 28.5 µM (inactive)
GI50 (TK-10): > 100 µM (inactive)
GI50 (CAKI-1): 37.6 µM (inactive)
GI50 (HOP-62): 69.3 µM (inactive)
GI50 (MCF7): 29.4 µM (inactive)
GI50 (SNB-19): > 100 µM (inactive)
GI50 (SF-295): > 100 µM (inactive)
GI50 (SK-MEL-2): > 100 µM (inactive)
GI50 (U-251): 33.2 µM (inactive)
GI50 (NCI-H23): 42.9 µM (inactive)
GI50 (SK-OV-3): > 100 µM (inactive)
GI50 (K562): 34 µM (inactive)
GI50 (HCT-15): 20 µM
GI50 (CCRF-CEM): 27.5 µM (inactive)
GI50 (SF-539): > 100 µM (inactive)
GI50 (COLO 205): 21.2 µM (inactive)
GI50 (Hs-578T): > 100 µM (inactive)
GI50 (SF-268): > 100 µM (inactive)
GI50 (PC-3): > 100 µM (inactive)
GI50 (NCI-H226): > 100 µM (inactive)
GI50 (OVCAR-5): 49 µM (inactive)
GI50 (ACHN): 46.1 µM (inactive)
GI50 (HT-29): 34 µM (inactive)
GI50 (IGROV-1): 37.9 µM (inactive)
GI50 (MDA-MB-435): 22.3 µM (inactive)
GI50 (SW-620): 36.2 µM (inactive)
GI50 (NCI/ADR-RES): 42.8 µM (inactive)
GI50 (MDA-N): 38.7 µM (inactive)
GI50 (OVCAR-3): 40.2 µM (inactive)
GI50 (SN12C): 70.1 µM (inactive)
GI50 (NCI-H522): 18.5 µM (inactive)
GI50 (OVCAR-8): > 10 µM (inactive)
GI50 (LOX IMVI): 0.724 µM (active)
GI50 (OVCAR-4): 49.8 µM (inactive)
GI50 (DU-145): > 100 µM (inactive)
GI50 (MDA-MB-231): 28.6 µM (inactive)
GI50 (A549): > 100 µM (inactive)
GI50 (M14): 21.1 µM (inactive)
GI50 (KM12): > 100 µM (inactive)
GI50 (SK-MEL-5): 40.9 µM (inactive)
GI50 (UO-31): > 100 µM (inactive)
GI50 (SNB-75): > 100 µM (inactive)
GI50 (786-0): 24.9 µM (inactive)
GI50 (A498): > 100 µM (inactive)

COc1cccc(NC(=O)CC(=O)N2N=C(C)C(/N=N/c3ccc(C(=O)O)cc3)C2=O)c1 (stereo unspecified)
GI50 (HL-60): > 100 µM (inactive)
GI50 (EKVX): 25.4 µM (inactive)
GI50 (Malme-3M): 56.6 µM (inactive)
GI50 (RPMI-8226): > 100 µM (inactive)
GI50 (SR): > 100 µM (inactive)
GI50 (UACC-257): > 100 µM (inactive)
GI50 (T47D): > 100 µM (inactive)
GI50 (HCT-116): > 100 µM (inactive)
GI50 (UACC-62): > 100 µM (inactive)
GI50 (BT-549): > 100 µM (inactive)
GI50 (SK-MEL-28): > 100 µM (inactive)
GI50 (TK-10): > 100 µM (inactive)
GI50 (CAKI-1): > 100 µM (inactive)
GI50 (HOP-62): > 100 µM (inactive)
GI50 (MCF7): > 100 µM (inactive)
GI50 (SNB-19): > 100 µM (inactive)
GI50 (SF-295): > 100 µM (inactive)
GI50 (SK-MEL-2): > 100 µM (inactive)
GI50 (HCC 2998): > 100 µM (inactive)
GI50 (RXF 393): > 100 µM (inactive)
GI50 (NCI-H23): > 100 µM (inactive)
GI50 (K562): > 100 µM (inactive)
GI50 (HCT-15): > 100 µM
GI50 (CCRF-CEM): > 100 µM (inactive)
GI50 (SF-539): > 100 µM (inactive)
GI50 (COLO 205): > 100 µM (inactive)
GI50 (Hs-578T): > 100 µM (inactive)
GI50 (SF-268): > 100 µM (inactive)
GI50 (PC-3): > 100 µM (inactive)
GI50 (OVCAR-5): > 100 µM (inactive)
GI50 (ACHN): > 100 µM (inactive)
GI50 (HT-29): 93.8 µM (inactive)
GI50 (IGROV-1): 46.7 µM (inactive)
GI50 (MDA-MB-435): > 100 µM (inactive)
GI50 (SW-620): > 100 µM (inactive)
GI50 (NCI/ADR-RES): > 100 µM (inactive)
GI50 (MDA-N): > 100 µM (inactive)
GI50 (OVCAR-3): > 100 µM (inactive)
GI50 (SN12C): > 100 µM (inactive)
GI50 (NCI-H522): 43.1 µM (inactive)
GI50 (OVCAR-8): > 100 µM (inactive)
GI50 (LOX IMVI): > 100 µM (inactive)
GI50 (OVCAR-4): > 100 µM (inactive)
GI50 (DU-145): > 100 µM (inactive)
GI50 (MDA-MB-231): > 100 µM (inactive)
GI50 (A549): > 100 µM (inactive)
GI50 (M14): > 100 µM (inactive)
GI50 (KM12): > 100 µM (inactive)
GI50 (SK-MEL-5): > 100 µM (inactive)
GI50 (UO-31): > 100 µM (inactive)
GI50 (SNB-75): 16.6 µM (inactive)
GI50 (786-0): > 100 µM (inactive)
